Laboratory results reported in PubChem BioAssay AID1645868 (Buhrlage Lab, Dana-Farber Cancer Institute and Novartis …, 2021).
Calls of active or inactive are those of the source.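 How the source made its calls: active means maximal percent inhibition of the deubiquitinase OTUD3 of at least 30% across the tested doses; inactive means the rest.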

Target: OTU domain-containing protein 3 (Homo sapiens) (UniProt Q5T2D3)
Experiment: Validation of screening hits, potency titration, in vitro enzymatic, OTU domain-containing protein 3 DUB inhibitors (AID 1645868)
Settings: purified OTUD3, ubiquitin-rhodamine cleavage fluorescence, 2 h

Sequence of OTU domain-containing protein 3 (Homo sapiens) (Q5T2D3 whole entry, looked up, the tested form may be a part): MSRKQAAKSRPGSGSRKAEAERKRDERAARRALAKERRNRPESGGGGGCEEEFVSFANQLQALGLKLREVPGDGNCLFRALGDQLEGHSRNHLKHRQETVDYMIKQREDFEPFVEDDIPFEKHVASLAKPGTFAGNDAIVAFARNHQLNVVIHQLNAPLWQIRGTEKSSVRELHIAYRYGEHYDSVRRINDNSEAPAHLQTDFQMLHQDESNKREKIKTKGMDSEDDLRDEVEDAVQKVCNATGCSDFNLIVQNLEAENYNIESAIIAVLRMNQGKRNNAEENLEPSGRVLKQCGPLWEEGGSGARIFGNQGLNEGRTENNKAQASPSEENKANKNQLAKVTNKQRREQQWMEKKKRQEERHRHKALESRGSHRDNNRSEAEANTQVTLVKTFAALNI

IC50	Compound
> 50 µM (inactive)	Cn1cc(CCNC(=O)c2cc3ccccc3[nH]2)c2cccnc21
3.6 µM	O=c1c2ccccc2oc2nc(-c3cccs3)n(-c3ccccc3)c(=O)c12
> 50 µM (inactive)	CC(C)=CCCC1(C)OC2=C(C(=O)c3cc(O)cc(O)c3C2=O)[C@H]2C=C(C)CC[C@H]21 (some centres not stated)
40.1 µM	O=c1c(S(=O)(=O)c2cc(F)cc(F)c2)c[nH]c2cc(Cl)ccc12
> 50 µM (inactive)	Cc1cc(C(=O)Nc2cc(C)n(Cc3ccc(Cl)cc3)n2)no1
> 50 µM (inactive)	Fc1ccc(CSc2nnc(-c3ccccn3)n2Cc2ccco2)cc1
21.7 µM	O=C(NCc1ccc2c(c1)OCO2)c1cc2c(s1)-c1ccccc1OC2
> 50 µM (inactive)	Cc1ccc(NC(=O)c2cnc(N3CCOCC3)nc2)cc1F
> 50 µM (inactive)	Cc1ccc(S(=O)(=O)N(C)C)cc1NC(=O)Cc1ccc(Cl)c(Cl)c1
> 50 µM (inactive)	CCn1ccc2c(cc(C(=O)Nc3cccc(OC)c3)n2C)c1=O
> 50 µM (inactive)	Cc1cc(-c2ccnc3c(C#N)cnn23)c(C)s1
> 50 µM (inactive)	Clc1cncc(Oc2nc(-c3cccnc3)nc3ccccc23)c1
> 50 µM (inactive)	N#Cc1c(-c2ccccc2)ccn(Cc2cccc(C(F)(F)F)c2)c1=O
20.7 µM	O=C(CCn1c(=O)c2sccc2n(CC(=O)OCc2ccccc2)c1=O)NCc1ccc2c(c1)OCO2
> 50 µM (inactive)	COc1ccc(NCc2cc(=O)n3[nH]c(NCc4ccc(C(C)C)cc4)nc3n2)cc1
> 50 µM (inactive)	O=C(c1ccc(N2CCc3ccccc32)nn1)N1CCc2ccccc21
> 50 µM (inactive)	COc1cc2c(oc(=O)c3cc(C)cc(OC)c32)c2c([C@@H]3OC(C)[C@@H](O)[C@@](C)(O)C3O)ccc(O)c12 (some centres not stated)
33.5 µM	CC(CCc1ccccc1)NC(=O)Cn1c(=O)c2cccn2c2ccccc21 (configuration not stated)
11 µM	O=C1NC(=O)/C(=C/c2ccc(OC(=O)c3ccc(Cl)cc3Cl)cc2)N1
> 50 µM (inactive)	CC(CCc1ccccc1)NC(=O)C(=O)c1cn(CC(=O)N2CCOCC2)c2ccccc12 (configuration not stated)
> 50 µM (inactive)	O=C(CN1CCCc2ccccc21)Nc1ccc(N2CCOCC2)cc1
> 50 µM (inactive)	Cc1ccc2cc(CCNC(=O)c3cccc(Br)c3)c(=O)[nH]c2c1
> 50 µM (inactive)	COc1cccc(N2CCN(C(=O)C3CCN(c4nc(NC(C)=O)ns4)CC3)CC2)c1

IC50	Compound
> 50 µM (inactive)	C[C@]12C(=O)N(c3ccc(C(=O)NCc4ccc(F)cc4)cc3)C(=O)N1CCc1c2[nH]c2ccccc12
> 50 µM (inactive)	O=C(COC(=O)c1ccc(NS(=O)(=O)c2ccc3c(c2)OCCO3)cc1)NCc1ccc(Cl)cc1
> 50 µM (inactive)	O=C(Nc1cccc(F)c1)C1CCCN(S(=O)(=O)N2CCCCCC2)C1 (configuration not stated)
> 50 µM (inactive)	CC(Sc1n[nH]c2nc3ccccc3n12)C(=O)Nc1ccc2c(c1)OCCO2 (configuration not stated)
> 50 µM (inactive)	CC(=O)c1ccc(NC(=O)/C(=C/c2ccco2)n2nnnc2-c2ccccc2)cc1
> 50 µM (inactive)	C=C1CCC2[C@](C)(CCC[C@]2(C)C(=O)OC)[C@H]1CCc1ccoc1C[N+](C)(C)Cc1ccccc1 (some centres not stated)
> 50 µM (inactive)	Cc1ccc(Nc2nc(Nc3cccc(Cl)c3)nc3nccnc23)cc1
> 50 µM (inactive)	Cc1ccc(-c2csc(-n3ncc(C(=O)N4CCN(C(=O)Nc5cccc6ccccc56)C(C)C4)c3C(C)C)n2)cc1 (configuration not stated)
> 50 µM (inactive)	O=C(c1ccco1)N1CCN=C1SCc1ccccc1F
> 50 µM (inactive)	Cc1ccc(Nc2nc(Nc3cccc(F)c3)nc3nccnc23)c(C)c1
> 50 µM (inactive)	COc1ccc(O)c(C(=O)OCc2cc(=O)oc3ccc4ccccc4c23)c1
28.4 µM	O=C(NCCc1ccco1)c1ccc(N2CCOc3ccccc32)s1
> 50 µM (inactive)	NC(=O)CCC(=O)N[C@H]1C[C@H]2CN(Cc3ccccc3)c3ccccc3CN2C1
35.4 µM	CCOc1ccc(Nc2cc(C(=O)NCCc3ccccc3)c3ccccc3n2)cc1
> 50 µM (inactive)	Cc1nn(-c2ccc(Cl)cc2)c2[nH]c(=O)c(CNCC3CCCO3)cc12 (configuration not stated)
10 µM	COc1ccc(Cn2c(=O)[nH]c3cc(C(=O)NCCCN4CCN(c5cccc(Cl)c5)CC4)ccc3c2=O)cc1
36 µM	CCCC(O)CCCCCCCc1cc(O)cc(O)c1C(=O)OC(CCC)CCCCCCCc1cc(O)cc(O)c1 (configuration not stated)
> 50 µM (inactive)	CO[C@H]1/C=C/OC2(C)Oc3c(C)c(O)c4c(c3C2=O)C2(C=C(NC(=O)/C(C)=C\C=C\[C@H](C)[C@H](O)[C@@H](C)[C@@H](O)[C@@H](C)[C@H](OC(C)=O)C1C)C4=O)OCC(=O)O2 (some centres not stated)
> 50 µM (inactive)	COc1ccccc1OCCNC(=O)c1cc(C2CC2)nc2c1cnn2C(C)C
39.5 µM	COc1ccccc1NC(=O)Cn1cc(C(=O)c2ccc(C)cc2)c(=O)c2ccccc21
> 50 µM (inactive)	COc1ccccc1OCC(=O)Nc1ccc2c(c1)CCC(=O)N2Cc1ccccc1
> 50 µM (inactive)	Cc1ccc(-n2nnc(C(=O)NC3CCCCC3)c2N)cc1
> 50 µM (inactive)	O=C1N(Cc2cccc(Cl)c2)CCN1c1ccc2c(c1)CCC2

IC50	Compound
> 50 µM (inactive)	O=C(Nc1ccc(NS(=O)(=O)c2ccc3c4c(cccc24)CC3)cc1)c1ccccc1
> 50 µM (inactive)	Cc1sc(-c2ccc(Cl)nc2)nc1OC(=O)c1ccc(F)cc1F
> 50 µM (inactive)	O=C(Nc1ccccc1)c1nc(-c2cn(Cc3ccc(F)cc3)nn2)no1
2 µM	Cc1ccc(-n2c(-c3ccccc3)cn3c4c(=O)[nH]c(=O)n(C)c4nc23)cc1C
> 50 µM (inactive)	O=C(Nc1cccc(N2CCCC2=O)c1)c1cccc2cccnc12
> 50 µM (inactive)	O=C(Nc1ccc(N2CCOCC2)cc1)c1ccc(-c2ccc(N3CCCC3)nn2)cc1
> 50 µM (inactive)	Cc1ccccc1NC(=O)Cn1cc(-c2nc(C3CC3)no2)ccc1=O
> 50 µM (inactive)	Cc1nc(-c2cccc(NC(=O)c3ccccc3Cl)c2)no1
> 50 µM (inactive)	O=[N+]([O-])c1ccc(NCC2COc3ccccc3O2)c(Cl)c1 (configuration not stated)
> 50 µM (inactive)	CC(=O)Nc1ccc(O)c(-c2nc3cc(C)ccc3o2)c1
23.6 µM	COc1ccc(/C=C/C(=O)Nc2c3c(nc4c2CCC4)CCCC3)cc1
37.1 µM	O=C(COC(=O)c1cc(Cl)ccc1O)Nc1ccc2c(c1)OCCO2
49.8 µM	Cc1ccc(NC(=O)CCC(=O)Nc2ccc3nc(N4CCCCC4)cc(C)c3c2)c(Br)c1
31.6 µM	Cc1cccc(NC(=O)CSc2nnc(-c3n[nH]c4c3CCC4)n2N)c1
26.6 µM	CO[C@H]1CC[C@H](O)c2c1oc1c3c4c(c(O)c1c2=O)-c1c(cc2c(Cl)c(C)n(N)c(=O)c2c1O)C[C@@H]4OCO3
> 50 µM (inactive)	CC1(C)CC(=O)C2=C(C1)Nc1ccccc1N(C(=O)C(F)(F)F)C2c1cccs1 (configuration not stated)
> 50 µM (inactive)	O=C(NCc1ccc(-c2nc3cnccc3o2)cc1)c1ccccc1Br
27.6 µM	CCc1cccc(CC)c1NC(=O)COC(=O)c1cc2cccc(OC)c2oc1=O
25.5 µM	O=C(Cn1c(-c2ccccc2)ncc(C(=O)NC2CC2)c1=O)Nc1ccccc1
29.9 µM	COc1cc(O)c2c(c1)C1=CC(=O)C(O)=C[C@]1(C)OC2=O
> 50 µM (inactive)	Cc1ccc2c(c1)[C@]1(C(=O)N2)[C@@H]2C(=O)N(c3cccc(C(F)(F)F)c3)C(=O)[C@@H]2C2CCCN21 (some centres not stated)
